The values below come from article PMC7899671 (eLife, 2021).

For assay [1], the target named is T1, α1V279Aβ2γ2L (V279A) receptors (Rattus norvegicus, UniProt P18508+P62813+P63138, INS375LLRMFSFK/V306A).
T1 construct: expressed in transfected cells; host or cells: Xenopus laevis oocytes injected with mRNA (α:β:γ 1:1:10)
Put plainly: Two-electrode voltage clamp of receptors expressed in Xenopus laevis oocytes (V279A). In kind it is cell-based. An excerpt:
(§1) DNA for wild-type GABAAR rat α1, β2, and γ2L subunits were a gift from Dr. Cynthia Czajkowski. Single alanine substitutions were introduced throughout the α1M2–M3 linker from L276-T283 in addition to the gain of function α1L9'T pore mutation (rat α1L263T) (QuikChange II, […]). Mutations V279D and V279W were introduced similarly. Each construct was verified by forward and reverse sequencing of the entire gene. mRNA for each construct was generated (mMessage mMachine T7, Ambion) for expression in X. laevis oocytes (EcoCyte Bioscience, Austin, TX). Oocytes were injected with 27–54 ng of total mRNA for α, β, and γ subunits in a 1:1:10 ratio ([Boileau et al., 2002]) (Nanoject, Drummond Scientific). Oocytes were incubated in ND96 (in mM: 96 NaCl, 2 KCl, 1 MgCl2, 1.8 CaCl2, 5 HEPES, pH 7.2) with […] gentamicin at 18°C.
(§2) Currents from expressed channels 1–3 days post-injection were recorded in two-electrode voltage clamp (Dagan TEV-200, HEKA ITC and Patchmaster software). […] PTX was diluted from a 1 M stock solution in DMSO. […] Recorded currents were analyzed with custom scripts in MATLAB (Mathworks). Recordings of concentration–response relationships were bookended by pulses of PTX to correct for any drift or rundown during the experiment. Briefly, currents were baseline subtracted to correct for drift and then scaled by a linear fit to the peak of each PTX response to correct for rundown (Figure 2—figure supplement 1).
(§3) where I is the peak current response, X is ligand concentration, EC50 is the concentration eliciting a half-maximal response, and n is the Hill slope.
For orientation: Two-electrode voltage clamp is typically applied to oocytes expressing channels or transporters.

For assay [2], the target named is T2, α1L9'T/V279Wβ2γ2L GABAA receptor (L9'T/V279W) (Rattus norvegicus, UniProt P18508+P62813+P63138, INS375LLRMFSFK/L290T/V306W).
T2 construct: expressed in transfected cells; host or cells: Xenopus laevis oocytes injected with mRNA (α:β:γ 1:1:10)
In kind it is cell-based.
Excerpt: (§4) The M2–M3 linker has both high sequence and structural similarity in pLGICs. The valine at position 279 in the GABAAR α1 subunit is located near the center of the linker and is nearly always an aliphatic residue in different GABAAR subunits as well as in subunits of other pLGICs, with the exception of AChR, where it is a threonine. Even where sequences differ, structural models of the M2–M3 linker for multiple pLGICs are highly similar.
as §1, §2, §3

In assay [3] the target is T3, α1L9'T/V279Dβ2γ2L GABAA receptor (L9'T/V279D) (Rattus norvegicus, UniProt P18508+P62813+P63138, INS375LLRMFSFK/L290T/V306D).
T3 construct: expressed in transfected cells; host or cells: Xenopus laevis oocytes injected with mRNA (α:β:γ 1:1:10)
In kind it is cell-based.
Excerpt: as §4, §1, §2, §3

Assay [4] has as its target α1L9'Tβ2γ2L, α1L9'T/V279Aβ2γ2L, and α1β2γ2L receptors. Put plainly: MWC model of channel gating, global fit to estimated open probability. The settings on record: MWC model parameter, global optimisation.
Assay [5] has as its target T4, α1L9'T/P277Aβ2γ2L GABAA receptor (L9'T/P277A) (Rattus norvegicus, UniProt P18508+P62813+P63138, INS375LLRMFSFK/L290T/P304A).
T4 construct: expressed in transfected cells; host or cells: Xenopus laevis oocytes injected with mRNA (α:β:γ 1:1:10)
In kind it is cell-based.
Excerpt: (§5) We use the gain of function mutation α1L9'T that confers spontaneous channel gating in the absence of agonist that can be further modulated by BZDs ([Scheller and Forman, 2002]; [Chang and Weiss, 1999]). The primary purpose for this mutation is to enable macroscopic current responses to report on pore gating by a BZD in the absence of agonist. […] We restricted the scan primarily to the flexible loop between helical regions associated with M2 and M3 from α1L276-T283 (Figure 1; Figure 1—figure supplement 1). Two of these positions, α1A280 and α1A282, are natively alanine and were not mutated. Briefly, Xenopus laevis oocytes were co-injected with mRNA for α, β, and γ subunits in a 1:1:10 ratio, and current responses to microfluidic application of ligands were recorded in two-electrode voltage clamp. […] Current block by the pore blocker PTX was used to assess the amount of spontaneous activity and to correct for drift or rundown over the course of the experiment (see Figure 2—figure supplement 1).
(§6) BZD positive modulators alone evoke channel opening with extremely low probability ([Campo-Soria et al., 2006]), thus necessitating coapplication with an agonist to obtain robust currents from wild-type receptors ([Germann et al., 2019]). However, dissecting the effects of BZDs on either agonist binding or channel gating is severely challenged in the presence of an agonist because the two processes are intimately coupled ([Colquhoun, 1998]).
as §1, §2

Assay [6] addresses T5, α1L9'T/V279Aβ2γ2L receptors (L9'T/V279A) (Rattus norvegicus, UniProt P18508+P62813+P63138, INS375LLRMFSFK/L290T/V306A).
T5 construct: expressed in transfected cells; host or cells: Xenopus laevis oocytes injected with mRNA (α:β:γ 1:1:10)
In kind it is cell-based.
Excerpt: as §5, §6, §1, §2

Assay [7] deals with T6, α1L9'T/L276Aβ2γ2L GABAA receptor (L9'T/L276A) (Rattus norvegicus, UniProt P18508+P62813+P63138, INS375LLRMFSFK/L290T/L303A).
T6 construct: expressed in transfected cells; host or cells: Xenopus laevis oocytes injected with mRNA (α:β:γ 1:1:10)
In kind it is cell-based.
Excerpt: as §5, §6, §1, §2

Assay [8] concerns the target T7, α1L9'T/K278Aβ2γ2L receptors (L9'T/K278A) (Rattus norvegicus, UniProt P18508+P62813+P63138, INS375LLRMFSFK/K305A/L290T).
T7 construct: expressed in transfected cells; host or cells: Xenopus laevis oocytes injected with mRNA (α:β:γ 1:1:10)
In kind it is cell-based.
Excerpt: as §5, §6, §1, §2

Assay [9] addresses T8, α1L9'T/T283Aβ2γ2L GABAA receptor (L9'T/T283A) (Rattus norvegicus, UniProt P18508+P62813+P63138, INS375LLRMFSFK/L290T/T310A).
T8 construct: expressed in transfected cells; host or cells: Xenopus laevis oocytes injected with mRNA (α:β:γ 1:1:10)
In kind it is cell-based.
Excerpt: as §5, §6, §1, §2

The target in assay [10] is T9, α1L9'Tβ2γ2L GABAA receptor (L9'T) (Rattus norvegicus, UniProt P18508+P62813+P63138, INS375LLRMFSFK/L290T).
T9 construct: expressed in transfected cells; host or cells: Xenopus laevis oocytes injected with mRNA (α:β:γ 1:1:10)
In kind it is cell-based.
Excerpt: as §5, §6, §1, §2

In assay [11] the target is T10, α1L9'T/Y281Aβ2γ2L GABAA receptor (L9'T/Y281A) (Rattus norvegicus, UniProt P18508+P62813+P63138, INS375LLRMFSFK/L290T/Y308A).
T10 construct: expressed in transfected cells; host or cells: Xenopus laevis oocytes injected with mRNA (α:β:γ 1:1:10)
In kind it is cell-based.
Excerpt: as §5, §6, §1, §2

The target in assay [12] is T11, α1β2γ2L (wild-type) GABAA receptors (Rattus norvegicus, UniProt P18508+P62813+P63138, INS375LLRMFSFK).
T11 construct: expressed in transfected cells; host or cells: Xenopus laevis oocytes injected with mRNA (α:β:γ 1:1:10)
Put plainly: Two-electrode voltage clamp of receptors expressed in Xenopus laevis oocytes (wild-type). In kind it is cell-based. To be noted: WT; 10 μM GABA + 1 μM FG-7142.
Excerpt: as §1
Currents from expressed channels 1–3 days post-injection were recorded in two-electrode voltage clamp (Dagan TEV-200, HEKA ITC and Patchmaster software). […] PTX was diluted from a 1 M stock solution in DMSO. […] Recorded currents were analyzed with custom scripts in MATLAB (Mathworks). Recordings of concentration–response relationships were bookended by pulses of PTX to correct for any drift or rundown during the experiment. […]

T6 sequence (P62813 28-455 L290T/L303A): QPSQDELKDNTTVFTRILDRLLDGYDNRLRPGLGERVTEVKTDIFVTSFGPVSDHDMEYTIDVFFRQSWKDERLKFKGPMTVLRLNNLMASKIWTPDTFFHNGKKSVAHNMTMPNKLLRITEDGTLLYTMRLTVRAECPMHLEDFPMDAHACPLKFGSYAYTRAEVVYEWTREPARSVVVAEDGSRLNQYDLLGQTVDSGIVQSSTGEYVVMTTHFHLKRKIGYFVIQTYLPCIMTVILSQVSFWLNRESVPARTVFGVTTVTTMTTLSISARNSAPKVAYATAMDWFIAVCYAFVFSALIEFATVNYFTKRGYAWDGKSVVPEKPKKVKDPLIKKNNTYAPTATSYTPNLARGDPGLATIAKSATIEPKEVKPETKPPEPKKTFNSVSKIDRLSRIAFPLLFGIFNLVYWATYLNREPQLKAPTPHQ
T6 sequence (P63138 25-474 limits assumed, stated change not applied): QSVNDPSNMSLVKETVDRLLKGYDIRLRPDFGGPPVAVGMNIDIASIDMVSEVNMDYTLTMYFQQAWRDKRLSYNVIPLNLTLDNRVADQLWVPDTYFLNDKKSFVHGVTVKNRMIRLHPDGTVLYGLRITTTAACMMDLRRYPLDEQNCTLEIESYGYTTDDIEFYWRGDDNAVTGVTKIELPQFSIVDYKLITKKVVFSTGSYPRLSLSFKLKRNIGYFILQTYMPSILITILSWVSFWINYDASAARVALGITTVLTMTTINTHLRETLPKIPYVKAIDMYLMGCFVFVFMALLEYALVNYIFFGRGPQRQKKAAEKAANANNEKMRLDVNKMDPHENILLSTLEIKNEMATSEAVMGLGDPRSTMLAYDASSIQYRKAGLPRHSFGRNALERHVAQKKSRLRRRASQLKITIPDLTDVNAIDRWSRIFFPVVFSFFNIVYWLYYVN
T6 sequence (P18508 with tags, fused parts or gaps INS375LLRMFSFK): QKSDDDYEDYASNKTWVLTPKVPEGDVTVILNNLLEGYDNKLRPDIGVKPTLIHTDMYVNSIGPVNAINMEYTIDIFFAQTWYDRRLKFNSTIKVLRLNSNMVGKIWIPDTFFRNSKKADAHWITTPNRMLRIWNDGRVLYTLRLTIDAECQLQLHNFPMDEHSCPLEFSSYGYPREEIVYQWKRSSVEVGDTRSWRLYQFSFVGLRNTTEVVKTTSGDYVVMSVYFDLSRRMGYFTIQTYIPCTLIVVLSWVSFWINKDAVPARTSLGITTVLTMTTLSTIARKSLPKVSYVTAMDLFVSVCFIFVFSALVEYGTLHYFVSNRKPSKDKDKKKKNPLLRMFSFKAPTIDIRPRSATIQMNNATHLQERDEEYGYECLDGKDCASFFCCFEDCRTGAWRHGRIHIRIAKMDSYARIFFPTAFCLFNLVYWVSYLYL
T10 sequence (P62813 28-455 L290T/Y308A): as the sequence (P62813 28-455 L290T/L303A) above, with A276L, Y281A counted along it
T10 sequence (P63138 25-474 limits assumed, stated change not applied): as the sequence (P63138 25-474 limits assumed, stated change not applied) above
T10 sequence (P18508 with tags, fused parts or gaps INS375LLRMFSFK): as the sequence (P18508 with tags, fused parts or gaps INS375LLRMFSFK) above
T8 sequence (P62813 28-455 L290T/T310A): as the sequence (P62813 28-455 L290T/L303A) above, with A276L, T283A counted along it
T8 sequence (P63138 25-474 limits assumed, stated change not applied): as the sequence (P63138 25-474 limits assumed, stated change not applied) above
T8 sequence (P18508 with tags, fused parts or gaps INS375LLRMFSFK): as the sequence (P18508 with tags, fused parts or gaps INS375LLRMFSFK) above
T7 sequence (P62813 28-455 L290T/K305A): as the sequence (P62813 28-455 L290T/L303A) above, with A276L, K278A counted along it
T7 sequence (P63138 25-474 limits assumed, stated change not applied): as the sequence (P63138 25-474 limits assumed, stated change not applied) above
T7 sequence (P18508 with tags, fused parts or gaps INS375LLRMFSFK): as the sequence (P18508 with tags, fused parts or gaps INS375LLRMFSFK) above
T1 sequence (P62813 28-455 V306A): as the sequence (P62813 28-455 L290T/L303A) above, with T263L, A276L, V279A counted along it
T1 sequence (P63138 25-474 limits assumed, stated change not applied): as the sequence (P63138 25-474 limits assumed, stated change not applied) above
T1 sequence (P18508 with tags, fused parts or gaps INS375LLRMFSFK): as the sequence (P18508 with tags, fused parts or gaps INS375LLRMFSFK) above
T4 sequence (P62813 28-455 L290T/P304A): as the sequence (P62813 28-455 L290T/L303A) above, with A276L, P277A counted along it
T4 sequence (P63138 25-474 limits assumed, stated change not applied): as the sequence (P63138 25-474 limits assumed, stated change not applied) above
T4 sequence (P18508 with tags, fused parts or gaps INS375LLRMFSFK): as the sequence (P18508 with tags, fused parts or gaps INS375LLRMFSFK) above
T3 sequence (P62813 28-455 L290T/V306D): as the sequence (P62813 28-455 L290T/L303A) above, with A276L, V279D counted along it
T3 sequence (P63138 25-474 limits assumed, stated change not applied): as the sequence (P63138 25-474 limits assumed, stated change not applied) above
T3 sequence (P18508 with tags, fused parts or gaps INS375LLRMFSFK): as the sequence (P18508 with tags, fused parts or gaps INS375LLRMFSFK) above
T9 sequence (P62813 28-455 L290T): as the sequence (P62813 28-455 L290T/L303A) above, with A276L counted along it
T9 sequence (P63138 25-474 limits assumed, stated change not applied): as the sequence (P63138 25-474 limits assumed, stated change not applied) above
T9 sequence (P18508 with tags, fused parts or gaps INS375LLRMFSFK): as the sequence (P18508 with tags, fused parts or gaps INS375LLRMFSFK) above
T2 sequence (P62813 28-455 L290T/V306W): as the sequence (P62813 28-455 L290T/L303A) above, with A276L, V279W counted along it
T2 sequence (P63138 25-474 limits assumed, stated change not applied): as the sequence (P63138 25-474 limits assumed, stated change not applied) above
T2 sequence (P18508 with tags, fused parts or gaps INS375LLRMFSFK): as the sequence (P18508 with tags, fused parts or gaps INS375LLRMFSFK) above
T5 sequence (P62813 28-455 L290T/V306A): as the sequence (P62813 28-455 L290T/L303A) above, with A276L, V279A counted along it
T5 sequence (P63138 25-474 limits assumed, stated change not applied): as the sequence (P63138 25-474 limits assumed, stated change not applied) above
T5 sequence (P18508 with tags, fused parts or gaps INS375LLRMFSFK): as the sequence (P18508 with tags, fused parts or gaps INS375LLRMFSFK) above
T11 sequence (P62813 28-455, stated change not applied): as the sequence (P62813 28-455 L290T/L303A) above, with T263L, A276L counted along it
T11 sequence (P63138 25-474 limits assumed, stated change not applied): as the sequence (P63138 25-474 limits assumed, stated change not applied) above
T11 sequence (P18508 with tags, fused parts or gaps INS375LLRMFSFK): as the sequence (P18508 with tags, fused parts or gaps INS375LLRMFSFK) above

In the case of `CN1C(=O)CN=C(c2ccccc2)c2cc(Cl)ccc21` [DZ, diazepam], the “DZ potentiation of GABA-evoked peak current responses” value in assay [1] (V279A vs wild-type, 1 μM DZ, EC20-25 (30 μM) or EC100 GABA) was “to a greater extent in V279A than in wild-type receptors”. The “DZ potentiation of currents evoked with a saturating concentration of GABA” value in assay [1] (V279A, 1 μM DZ, EC100 GABA 3–30 mM) was “potentiates V279A currents evoked with a saturating concentration of GABA”. In addition, the DZ hill slope in assay [2] is 0.90; in [3], 0.58; in assay [5], 1.24; in assay [6] it was 0.98; in assay [7] it was 0.61; in [8], 0.97. Moreover, the DZ hill slope in [9] was determined as 1.42; in [10], 1.10; in assay [11], 1.14. Moreover, the “ΔΔGDZ (DZ's energetic contribution to pore gating, ΔG1 − ΔG0)” value in [2] is on record as −0.53 ± 0.10 (3) kcal/mol; in assay [3], −0.52 ± 0.02 (3) kcal/mol; in [5] it was −0.46 ± 0.20 (5) kcal/mol; in [6], −1.11 ± 0.30 (5) kcal/mol; in assay [7] it was −0.45 ± 0.04 (5) kcal/mol; in [8], −0.44 ± 0.08 (4) kcal/mol. Moreover, the “ΔΔGDZ (DZ's energetic contribution to pore gating, ΔG1 − ΔG0)” value was −0.38 ± 0.04 (6) kcal/mol in [9], −0.31 ± 0.04 (5) kcal/mol in [10] and −0.42 ± 0.07 (4) kcal/mol in assay [11]. Further, in assay [4] (read-out: KD (dissociation constant for DZ)), the Kd (in general, a measure of binding affinity in units of concentration) was 180 nM. Further, the “dV279A (factor by which DZ binding influences channel opening)” value in [6] came to 0.20.
As to `CNC(=O)c1cc2c(cn1)[nH]c1ccccc12` [FG-7142], the “Effect of FG-7142 on responses to ~EC20-25 GABA” value is “to a slightly lesser extent in V279A” in [1] (V279A, 30 μM GABA + 1 μM FG-7142, compared with WT) and “reduced” in assay [12].
On to `NCCCC(=O)O` [GABA], for which, in assay [4], the “c (factor by which GABA binding influences channel opening)” value is given as 0.0031.
With picrotoxin [PTX], the “IPTX /IGABA-max (ratio of PTX-sensitive to maximal GABA-evoked current amplitude)” value in assay [2] (L9'T/V279W, 1 mM PTX, saturating GABA, mean ± SD) was 0.16 ± 0.05 (2); in assay [3] (L9'T/V279D, 1 mM PTX, saturating GABA, mean ± SD), 0.02 ± 0.005 (3); in assay [5] (L9'T/P277A, 1 mM PTX, saturating GABA, mean ± SD), 0.45 ± 0.03 (3); in [6] (L9'T/V279A, 1 mM PTX, saturating GABA, mean ± SD), 0.17 ± 0.04 (4); in [7] (L9'T/L276A, 1 mM PTX, saturating GABA, mean ± SD), 0.22 ± 0.09 (4); in assay [8] (L9'T/K278A, 1 mM PTX, saturating GABA, mean ± SD), 0.20 ± 0.06 (5). In addition, the “IPTX /IGABA-max (ratio of PTX-sensitive to maximal GABA-evoked current amplitude)” value in assay [9] (L9'T/T283A, 1 mM PTX, saturating GABA, mean ± SD) is listed as 0.11 ± 0.03 (5); in assay [10] (L9'T, 1 mM PTX, saturating GABA, mean ± SD (# oocytes)), 0.36 ± 0.04 (5); in [11] (L9'T/Y281A, 1 mM PTX, saturating GABA, mean ± SD) it was 0.25 ± 0.07 (5).
